Values after ≈ are worked out from the molar mass of the structure shown. Read-outs that look alike come from different tables or passages of the source.
Key:
[1] = Protonation constants by (traditional) potentiometric titration (TPT), SUPERQUAD; details: 0.1 M NaNO3, 25 °C; for pKa: aqueous 0.1 M NaNO3, log K, TPT
Source text: Results were obtained from […] as overall stability constants (log β values); following the chosen zero level H2L^2−. This zero level H2L^2− was chosen in the calculations to avoid any accumulation of errors of protonation constants at different pH ranges. The log β results for reactions (4) and (5) obtained in the final refinements are listed in Table S3 (see Supporting Information) with error limits (±3σ), number of points/number of titrations and χ^2/Σ statistics.
The details of the experiments using (traditional) potentiometric titration are presented in the Supporting Information. The results of the determination by Sirius instrument are shown in the Supporting Information. Potentiometric titrations of the compounds were performed with the PCA200 apparatus (Sirius Analytical Instruments Ltd, Forest Row, East Sussex, UK).
Table S2. The effect of pH on aqueous solubility (mg/L) of aminoalkylbis(phosphonates) […]
Solubility (g/L) of Compound
Determination of the Protonation Constants Using (traditional) Potentiometric Titration. Reagents:
Aqueous 0.1 M NaOH was prepared from Titrisol ampoules (Merck) and 0.1 M HNO3 from Convol ampoules (BDH). The background solution was prepared by dissolving NaNO3 in deionised water.
The NaNO3 and NaCl used in reference electrode were p.a. grade (Merck). The water used in the dilutions and titration solutions was purified with Milli-RO and Milli-Q water purification systems […]
Potentiometric measurements: The protonation equilibria was studied in aqueous 0.1 M NaNO3 at 25.0 ± 0.1 °C through a series of potentiometric EMF titrations carried out with a Schott-Geräte GmbH […]
The cell arrangement for the measurement of the hydrogen ion concentration [H+] was as follows:
−RE […] equilibrium solution […] GE+ (1) where GE denotes a glass electrode (Schott N2680), and RE is Hg, Hg2Cl2 […] 0.01 M NaCl, 0.09 M NaNO3. Expression (2) is valid assuming that the activity coefficients are constant.
The cell parameter E0 and the liquid junction coefficient jH, valid in acidic solutions, were determined for each titration by adding a known amount of HNO3 to the background electrolyte. The value of the liquid junction coefficient jOH, valid in basic solutions, was determined periodically. Only stable EMF readings were used in the calculations.
During the measurements of the protonation equilibria, aqueous 0.1 M NaOH or 0.1 M HNO3 was […]
Four to eight independent titrations were carried out for each ligand. The number of data points used in […]
Data treatment: Protonation and deprotonation of the ligands were controlled by addition of HNO3 or NaOH. The curves of ZH versus pH were drawn to visualize the experimental data sets. ZH describes the average number of H+ ions added or liberated per mole of ligand and is given by the relationship […]
where CH denotes the total concentration of protons calculated over the zero level H2L2−.
In the evaluation of the equilibrium constants, the following two-component equilibria were utilized:
H2L2− ⇋ H2-xL(2+x)– + xH+ , x = 1–2; β–x (4) xH+ + H2L2− ⇋ Hx+2Lx–2, x = 1–3; βx (5)
Mathematical analysis of the systems involves a search for protonation models and equilibrium constants that best describe the experimental data. The calculations were carried out with the computer […]
1200). The sample standard deviation Σ and the χ2 statistics used as criteria in the selection of the models were those provided by the program. As a means to improve the confidence level, the error limits for log β values determined in this study are reported as three times the standard deviation estimated by the program.
Figure S2. ZH vs. pH for protonation of compounds (a) 1; (b) 2; (c) 3; (d) 4 and (e) 5.

[2] = Thermal analysis (TG/DTA and TGA 7); type: physicochemical; details: for Td: 5 °C/min; for Temp. range of 1st cleavage: lower limit taken at 0.5 wt-%
Experimental: Thermal decomposition paths with evaluation of crystal water content were obtained parallel with two instruments; Perkin Elmer STA 6000 thermogravimetric TG/DTA and Perkin Elmer TGA 7 analyzers (Perkin Elmer, Massachusetts, USA). Measurements were carried out in an open platinum crucible (the higher 5 mm crucible was used in TG/DTA and a shallower 2 mm crucible in TGA 7) under air atmosphere (flow rate of 45 mL/min) with a heating rate of 5 °C/min over the temperature range of 25−700 °C. The temperature calibration of STA 6000 was made using melting points of indium (156.60 °C) and zinc (419.5 °C) standards. For TGA 7 magnetic Curie-point calibration technique (Alumel, Ni, Perkalloy, Fe) was used. The weight balance of both instruments was calibrated by measuring a standard weight of 50 mg at room temperature. The sample weights used in the measurements were about 4–8 mg, and for each bisphosphonate, it was attempted to keep the same on both instruments. The melting/dehydration/decomposition behavior of the compounds was also visually monitored using a Stuart Scientific SMP3 melting point apparatus.

[3] = cited from earlier work; for logK, pKa3: H2L2− + H+ ⇋ H3L−; for logK, pKa2: H3L− + H+ ⇋ H4L; for logK, pKa1: H4L + H+ ⇋ H5L+; for logK, pKa4: HL3− + H+ ⇋ H2L2−; for logK, pKa5: L4− + H+ ⇋ HL3−
[4] = pKa determination with Sirius instrument (PCA200)
[5] = Aqueous solubility of saturated solution at 21 °C (phosphorus determination by molybdenum blue spectrophotometry)
Experimental: A Jasco V-530 UV/Vis spectrophotometer was used for phosphorus determination at 880 nm wavelength. Filtered liquid samples were diluted to the appropriate volume with Milli-Q water and were digested with the persulphate oxidation technique in acidic medium at elevated temperature to convert aminobisphosponates to orthophosphate. In an acidic medium, ammonium molybdate and antimony potassium tartrate react with orthophosphate to form a phosphomolybdic acid that is reduced to intensively colored molybdenum blue by ascorbic acid [30].
The mixture containing an excess of the studied compound was first agitated for predetermined time with magnetic stirrer and before taking the sample mixture was allowed to stand for 24 h without stirring. The sample (about 5 mL) was taken from liquid above the solids, pH was measured and the sample was filtered through 0.2 µm membrane filter to remove any possible insoluble particles. The phosphorus concentration in the filtered sample solution was determined by using the spectrophotometric method described above.

[6] = overall protonation, zero level H2L2−

pKa ([1]; pKa1 (H4L + H+ ⇋ H5L+), approximate values): 1.06
pKa ([1]; pKa2 (H3L− + H+ ⇋ H4L)): 1.7
pKa ([1]; pKa3 (H2L2− + H+ ⇋ H3L−)): 5.9
pKa ([1]; pKa4 (HL3− + H+ ⇋ H2L2−)): 10
pKa ([1]; pKa5 (L4− + H+ ⇋ HL3−)): 12.9
logβx ± 3σ, x = 1 (H3L−) [1, 6]: 5.90 ± 0.02
logβx ± 3σ, x = 2 (H4L) [1, 6]: 7.60 ± 0.05
logβx ± 3σ, x = 3 (H5L+) [1, 6]: 8.66 ± 0.30
logβx ± 3σ, x = −1 (HL3−) [1, 6]: −10.04 ± 0.03
logβx ± 3σ, x = −2 (L4−) [1, 6]: −22.90 ± 0.23
Onset temperature of first cleavage ([2]; TG/DTA, higher crucible): 149 °C
Td ([2]; TG/DTA, higher crucible, air): 149 °C
Temp. range of 1st cleavage ([2]; TG/DTA, higher crucible): 134–199 °C
Onset temperature of first cleavage ([2]; TGA 7, shallow crucible): 155 °C
Td ([2]; TGA 7, shallow crucible, air): 155 °C
Temp. range of 1st cleavage ([2]; TGA 7, shallow crucible): 102–203 °C
Td (decomposition onset) ([2]; average from both instruments, air, heating rate 5 °C/min): 152 °C
temperature of first decomposition step (cleavage of amino group / degradation) ([2]; thermogravimetry, air): 100–200 °C
pKa 2 (Sirius) [4]: 2.32
pKa 3 (Sirius) [4]: 5.93
pKa 4 (Sirius) [4]: 10.05
pKa 5 (Sirius) [4]: 12.54
solubility at 30 min ([5]; Milli-Q water, unbuffered, 21 °C, water, thermodynamic from solid): 10.9 mg/mL (≈ 46.5 mM)
pH of saturated solution ([5]; saturated aqueous solution, 21 °C, agitation time 30 min): 4.62
water solubility (in words) ([5]; water): almost freely soluble
Structure (SMILES): NCCC(O)(P(=O)(O)O)P(=O)(O)O [Compound 1, (3-Amino-1-hydroxypropylidene)bisphosphonic acid]
logK, pKa3 ([3]; first Ref.18 column): 6.01
logK, pKa3 ([3]; ref 4): 5.86
logK, pKa3 ([3]; ref 13): 5.83
logK, pKa3 ([3]; ref 14): 5.85
logK, pKa3 ([3]; ref 15): 6.01
logK, pKa3 ([3]; ref 17): 6.04
logK, pKa3 ([3]; second Ref.18 column): 5.39
logK, pKa2 ([3]; ref 4): 2.04
logK, pKa2 ([3]; ref 13): 2.55
logK, pKa2 ([3]; ref 14): 1.80
logK, pKa2 ([3]; ref 15): 2.56
logK, pKa2 ([3]; ref 17): 1.93
logK, pKa1 ([3]; ref 14): <1.2
logK, pKa1 ([3]; ref 17): 1.24
logK, pKa4 ([3]; first Ref.18 column): 9.97
logK, pKa4 ([3]; ref 4): 9.90
logK, pKa4 ([3]; ref 13): 9.9
logK, pKa4 ([3]; ref 14): 10.30
logK, pKa4 ([3]; ref 15): 9.80
logK, pKa4 ([3]; ref 17): 10.18
logK, pKa4 ([3]; second Ref.18 column): 9.46
logK, pKa5 ([3]; first Ref.18 column): 10.74
logK, pKa5 ([3]; ref 4): 11.02
logK, pKa5 ([3]; ref 13): 10.8
logK, pKa5 ([3]; ref 14): 13.06
logK, pKa5 ([3]; ref 15): 10.95
logK, pKa5 ([3]; ref 17): 12.14
logK, pKa5 ([3]; second Ref.18 column): 10.40
